Data as given in patent US8859581B2, “Azaheterocyclic compounds as kinase inhibitors” (Merck Patent GmbH, priority 2005, dated 2014).
Counter-ions that a name gives are not always drawn.

SMILES: COc1cccc(-c2c([Si](C)(C)C)[nH]c3ccnc(Cl)c23)c1
- melting point: 137 °C

SMILES: COc1cccc(-c2c([Si](C)(C)C)[nH]c3cc(Cl)ncc23)c1
- melting point: 179 to 179.5 °C

SMILES: c1ccc(CCCOc2cccc(-c3cc4c(Nc5cccnc5)ccnc4[nH]3)c2)cc1 (as salt: HCl) [Compound 22]
- melting point: 166 to 167.5 °C

SMILES: Fc1cccc(Nc2ccnc3[nH]c(-c4cccc(OCCCc5ccccc5)c4)cc23)c1 (as salt: HCl) [Compound 24]
- melting point: 210 to 211.5 °C

SMILES: c1ccc(CCCOc2cccc(-c3cc4c(Nc5ccccn5)ccnc4[nH]3)c2)cc1 (as salt: HCl) [Compound 25]
- melting point: 175 to 176 °C

SMILES: Fc1ccccc1Nc1ccnc2[nH]c(-c3cccc(OCCCc4ccccc4)c3)cc12 (as salt: HCl) [Compound 26]
- melting point: 155 to 156 °C

SMILES: COc1ccc(CNc2nccc3[nH]cc(-c4cccc(OC)c4)c23)cc1 (as salt: HCl) [Compound 42]
- melting point: 226 to 227 °C

SMILES: COc1cccc(-c2c([Si](C)(C)C)n(CCCCN3C(=O)c4ccccc4C3=O)c3ccnc(Cl)c23)c1 (as salt: TFA)
- melting point: 183 to 184 °C

SMILES: COc1ccc(-c2cc3c(N(C(=O)c4ccc(F)c(Cl)c4)C(=O)c4ccc(F)c(Cl)c4)ccnc3[nH]2)cc1 (as salt: TFA) [Compound 33]
- melting point: 142 to 144 °C

SMILES: COc1ccc(-c2cc3c(NC(=O)Nc4ccc(Cl)c(C(F)(F)F)c4)ccnc3[nH]2)cc1 (as salt: TFA) [Compound 34]
- melting point: 141 to 142 °C

SMILES: C=CCNc1ccnc2[nH]c(-c3ccc(OC)cc3)cc12 (as salt: TFA) [Compound 35]
- melting point: 189.5 to 190 °C

SMILES: COc1ccc(CNc2ccn(CCCCN)c3nc(-c4ccc(OC)cc4)cc2-3)cc1 (as salt: TFA) [Compound 36]
- melting point: 127 to 127.5 °C

SMILES: COc1cccc(-c2cn(CCCCN)c3ccnc(N)c23)c1 (as salt: TFA) [Compound 47]
- melting point: 50 °C

SMILES: COc1ccc(CNc2nccc3[nH]c(-c4cccc(OCc5ccccc5)c4)cc23)cc1 (as salt: TFA) [Compound 48]
- melting point: 130 to 131 °C

SMILES: COc1cccc(-c2cn(CCCN3C(=O)c4ccccc4C3=O)c3ccnc(Cl)c23)c1 (as salt: TFA) [Compound 49]
- melting point: 129 to 130 °C

SMILES: COc1cccc(-c2cn(CCN3C(=O)c4ccccc4C3=O)c3ccnc(Cl)c23)c1 (as salt: TFA) [Compound 51]
- melting point: 130 °C (dec.)

SMILES: COc1cccc(-c2cn(CCCCN3C(=O)c4ccccc4C3=O)c3ccnc(N)c23)c1 (as salt: TFA) [Compound 55]
- melting point: 188 to 189 °C

SMILES: COc1cc(-c2cc3c(Nc4cccnc4)ccnc3[nH]2)cc(OC)c1OC (as salt: hydrochloride) (hydrate or solvate) [Compound 2]
- melting point: 202 to 203 °C

SMILES: COc1ccc(Nc2ccnc3[nH]c(-c4cc(OC)c(OC)c(OC)c4)cc23)cc1N1CCN(C)CC1 (as salt: hydrochloride) (hydrate or solvate) [Compound 3]
- melting point: 78 to 80 °C

SMILES: COc1cc(-c2cc3c(Nc4cnccn4)ccnc3[nH]2)cc(OC)c1OC (as salt: hydrochloride) (hydrate or solvate) [Compound 7]
- melting point: 292 to 294 °C

SMILES: COc1cc(-c2cc3c(NCc4cccnc4)ccnc3[nH]2)cc(OC)c1OC (as salt: hydrochloride) (hydrate or solvate) [Compound 8]
- melting point: 181.5 to 183 °C

SMILES: COc1cc(-c2cc3c(NCCc4cccnc4)ccnc3[nH]2)cc(OC)c1OC (as salt: hydrochloride) (hydrate or solvate) [Compound 9]
- melting point: 105.5 to 106.5 °C

SMILES: COc1cc(-c2cc3c(NCCc4ccccn4)ccnc3[nH]2)cc(OC)c1OC (as salt: hydrochloride) (hydrate or solvate) [Compound 10]
- melting point: 153 to 154 °C

SMILES: COc1cc(-c2cc3c(Nc4cccc(C#N)c4)ccnc3[nH]2)cc(OC)c1OC (as salt: hydrochloride) (hydrate or solvate) [Compound 11]
- melting point: 291 to 292.5 °C
